# Experimental data: patent US11590102B2, “Anti-methanogenic lovastatin analogs or derivatives and uses thereof” (CEDARS-SINAI MEDICAL CENTER, priority 2015, dated 2023)
# Tested on: methane production in human stool
# Experiment: Methane production in human stool homogenates of IBS-C patients (head gas analysed by gas chromatography)
# Format: cell-based
# Conditions: stool homogenates of methane-producing human IBS-C patients, anaerobic chamber; 0.5, 1, 5 and 10 mg of statin per g of stool; head gas at baseline, 90 minute intervals for 3 hours and overnight (~720 min); FIG. 4
# Method: Fresh stool samples were provided by two methane-producing human IBS-C patients (breath methane>10 ppm) who had provided an informed consent. Different concentrations of stool from each patient were homogenized in deoxygenated PBS (3 ml PBS/2 g stool) inside an anaerobic incubation chamber. Plead gas was extracted through a stopcock at various timepoints ([…], and following overnight incubation) and methane levels in the head gas at each timepoint were analyzed by gas chromatography using a Quintron SC gas chromatograph (Quintron Instrument Company, Milwaukee, Wis.).
# The effects of lovastatin lactone, lovastatin ß-hydroxyacid and lovastatin diol on methane production were evaluated by incubating various concentrations of these molecules (0 mg, 0.5 mg, 1 mg, 5 mg and 10 mg of statin per g of human stool) with human stool homogenates in an anaerobic chamber as described above. Plead gas samples were drawn from each flask for methane analysis at baseline and at 90 minute intervals for 3 hours, followed by a final sample after overnight incubation (˜720 min).
row,Compound,inhibition of methane production in human stool
1,C[C@H]1C=C2C=C[C@H](C)[C@H](CCC3C[C@@H](O)CC(=O)O3)[C@H]2[C@@H](O)C1 (stereo partly drawn) [lovastatin diol lactone],effective inhibitors of methane production
2,"CC[C@H](C)C(=O)O[C@H]1C[C@@H](C)C=C2C=C[C@H](C)[C@H](CC[C@@H](O)C[C@@H](O)CC(=O)O)[C@H]21 [lovastatin R-hydroxyacid, lovastatin ß-hydroxyacid]",ineffective as an inhibitor of methane production
3,"CC[C@H](C)C(=O)O[C@H]1C[C@@H](C)C=C2C=C[C@H](C)[C@H](CC[C@@H]3C[C@@H](O)CC(=O)O3)[C@H]21 [Lovastatin lactone, lovastatin lactone]",effective inhibitors of methane production
